According to patent publication US20260224590A1 (priority 2023, published 2026):

How the values were obtained:
[1] = biological target: 5-HT2A receptor (Homo sapiens, UniProt P28223); test: 5-HT2A receptor downstream β-arrestin2 recruitment in HEK-293T cells; format: cell-based; set-up: expressed in transfected cells; host or cells: HEK-293T (ATCC, CRL-11268); details: HEK-293T; percentage printed in parentheses beside the nM value, not defined
Experimental: On the second day, the confluent cells from a 6 cm culture dish were digested and reseeded into a 96-well plate at a volume of 100 μL of culture medium per well. On the third day, the drugs were added for testing. The 96-well plate was taken out from the cell incubator to decant the culture medium. 40 μL of the substrate coelenterazine 400a (final concentration 5 μM) was added to each well, and then 20 μL of different drugs were added sequentially from left to right, ensuring that the final concentration of the drug decreased gradually from bottom to top, with two replicates per treatment. Finally, the prepared samples were loaded on a plate reader for signal quantification. The readout values reflected the recruitment of β-arrestin2 to the membrane or the dissociation of G protein trimer. The former indicated the degree of activation of the downstream β-arrestin2 signaling pathway mediated by the 5-HT2A receptor, and the latter indicated the degree of activation of the downstream G protein signaling pathway mediated by the 5-HT2A receptor.

[2] = test system: C57BL/6 mice, corticosterone in drinking water; test: tail suspension test after 21 days of corticosterone exposure; format: in vivo; details: corticosterone model
Experimental: Antidepressant efficacy test method: Male C57BL/6 mice (8 weeks old, purchased from Shanghai Lingchang Biotech Co., Ltd.) were administered a solution of corticosterone in their drinking water at a concentration of 25 μg/mL using drinking water bottles for 21 days. Mice were maintained on a 12-hour light cycle. Corticosterone-containing drinking water was refreshed every other day for the first two weeks, and gradually replaced with corticosterone-free drinking water every two days for the last week. […] TST procedure: mice in the control group and the administration group were suspended by their tails with tape for 6 minutes, and their behavior was recorded by a video camera. The immobility time during the last 4 minutes was manually timed and assessed by an observer who was unaware of the treatment conditions.

[3] = in vivo; details: male, C57, mouse, plasma, ip, 5 mg/kg
Experimental: The concentration of the compound in mouse plasma was determined using LC-MS/MS, and the relevant pharmacokinetic parameters were calculated to investigate the pharmacokinetic characteristics of the compound in mice.
Experimental design: 60 male C57 mice (purchased from Suzhou JOINN Laboratory Animal Co., Ltd.) were randomly divided into groups based on weight, with 3 mice per group. The mice were fasted with water ad libitum for 12 to 14 hours one day before test-article administration and fed 4 hours after the administration. The route of administration was intraperitoneal (IP), with a dosing concentration of 1 mg/mL, and a solvent formulation of 10% DMSO+90% saline.
Sample collection: 0.1 mL of blood was collected from the orbit under isoflurane anesthesia before and after test-article administration, transferred to EDTA K2 tubes, and placed on an ice bath. The samples were centrifuged at 5000 rpm for 10 minutes at 4° C., and the plasma was collected. […] Prior to analysis, all plasma samples were stored at −80° C.
Data processing: Drug concentrations in plasma and brain tissues were measured using LC-MS (API4000QTRAP triple quadrupole tandem mass spectrometer, equipped with an electrospray ionization source (ESI)). The data collection and control system software utilized was Analyst 1.5.1 (Applied Biosystems). The sample peak integration in the spectrum was conducted automatically; the ratio of the sample peak area to the internal standard peak area was used as an indicator to perform regression with the concentration of the sample. Regression method: Linear regression with a weighting factor of 1/X^2. Pharmacokinetic parameters were analyzed using a non-compartmental model in WinNonlin Professional v6.3 (Pharsight, USA). Cmax is the measured maximum plasma concentration, the area under the plasma concentration-time curve (AUC(0→t)) was calculated by the trapezoidal method, and Tmax is the time to reach peak plasma concentration after administration. Experimental data are presented as “Mean±Standard Deviation” (Mean±SD, n≥3) or “Mean” (n=2).

[4] = test system: C57BL/6J mice; test: head-twitch response in mice (hallucinogenic effects); format: in vivo; details: intraperitoneal injection, first 30 minutes, all doses tested
From the text: Method: The head-twitch response in mice was detected via oscillatory signals to characterize hallucinogenic effects. Mice (strain C57BL/6J, purchased from Shanghai Lingchang Biotech Co., Ltd.) were anesthetized with 2% isoflurane. A small portion of the scalp was removed from the center of the dorsal cranium. A custom-made small neodymium magnet (4 mm×4 mm×2 mm) was attached to the center of the dorsal cranium using dental resin. The magnet N-S poles were kept parallel to the dorsoventral aspect of the implant. The mice were allowed to recover for 1 week before testing. To record precise head movements, the mice were placed in a glass beaker with a diameter of 12 cm, surrounded by 150 turns of #30 enameled copper wire. The output signal from the coil was recorded using a PowerLab/4SP instrument installed with LabChart V8.1.16 software. Coil voltage was amplified, low-pass filtered at 10 kHz to remove radio frequency interference, and sampled at 40 kHz. For the detection of head-twitch response in mice, LabChart data were processed with a digital band-pass filter at 40 to 200 Hz. The head-twitch response in mice was identified by searching for sinusoidal wavelets that met the following criteria: 1) containing more than two bipolar peaks; 2) amplitude exceeding background noise level; 3) duration less than 120 milliseconds. 1 hour prior to the test, the mice were transferred to the test room for acclimatization. Subsequently, the mice were placed in the beaker for 30 minutes, and baseline head-twitch response values were recorded. Immediately after baseline recording, the mice were injected intraperitoneally with the test compound, and head-twitch response values were recorded for 1 to 2 hours post-dose, depending on the compound used. Statistical values were taken from the first 30 minutes.

5-HT2A receptor, sequence (P28223 whole entry): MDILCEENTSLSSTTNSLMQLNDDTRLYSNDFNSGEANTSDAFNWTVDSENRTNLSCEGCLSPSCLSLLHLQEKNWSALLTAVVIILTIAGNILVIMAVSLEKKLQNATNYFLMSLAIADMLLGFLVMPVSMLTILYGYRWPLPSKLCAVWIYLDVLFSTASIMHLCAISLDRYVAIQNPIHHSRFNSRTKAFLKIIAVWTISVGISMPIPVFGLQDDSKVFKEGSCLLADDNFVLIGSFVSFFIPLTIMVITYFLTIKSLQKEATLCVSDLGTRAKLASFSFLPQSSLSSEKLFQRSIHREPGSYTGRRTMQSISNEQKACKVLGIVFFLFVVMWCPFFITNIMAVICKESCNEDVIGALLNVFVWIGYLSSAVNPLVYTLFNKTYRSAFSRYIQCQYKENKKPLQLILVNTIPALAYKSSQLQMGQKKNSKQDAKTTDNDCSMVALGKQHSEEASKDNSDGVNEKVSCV

COc1ccccc1CCCN1CCC2C(C1)c1cccc3c1N2CCO3 (single isomer, unassigned) [I-23]
β-arrestin2 signaling agonistic activity (% in parentheses) [1]: (51.6%) | antidepressant effect in the mouse tail suspension test ([2]; 10 mg/kg single injection, after 7 days): remained significant | antidepressant effect in the mouse tail suspension test ([2]; 10 mg/kg single injection, after 14 days): remained significant | antidepressant effect in the mouse tail suspension test ([2]; one day after a single administration): significant antidepressant effect | AUC0-inf [3]: 540 ng·h/mL | hallucinogenic effects (head-twitch response) [4]: did not induce hallucinogenic effects
